Measurements: patent US8475804B2 (priority 2009, dated 2013)
Where a name gives a salt, the structure may show the parent alone. Read-outs that look alike come from different tables or passages of the source. Non-standard residues stand in square brackets, D forms with d. Residues, ends and D or L forms follow the SMILES beside them. *: point of attachment. Nva = CCC[C@H](N)C(=O)O; Cbz = O=C(OCc1ccccc1)*

Test system: Ebola virus
Assay: microbe, parasite or virus in culture
Format: cell-based, Ebolavirus (EBOV)
Conditions: for Emax: read-out: Max Effect

Compound | Max Effect | Emax (Zaire ebolavirus, Vero) | IC50 (Zaire ebolavirus, Vero) | other results
O=S(=O)([O-])[O-].[Mg+2] [Magnesium Sulfate] | 0.719 | – | – | IC50 (read-out: IC50): 9.2 µM
Fc1ccc(C(c2ccc(F)cc2)N2CCN(C/C=C/c3ccccc3)CC2)cc1 [Flunarizine Hydrochloride] | – | 40.2% | – | –
O=C([O-])CN(CCN(CC(=O)[O-])CC(=O)[O-])CC(=O)[O-].[Ca+2].[Na+].[Na+] [Edetate Calcium Disodium] | – | 84.1% | 6.6 µM | –
Sodium Vanadate | – | – | – | IC50 (read-out: IC50): 13 µM
CCN(CC)CCNC(=O)c1c(C)[nH]c(/C=C2\C(=O)Nc3ccc(F)cc32)c1C [Sunitinib Malate] | – | 78.8% | 4.4 µM | –
CO/C1=C\C(C)=C\[C@@H](C)[C@@H](O)[C@@H](C)C/C(C)=C/C=C/[C@H](OC)[C@@H]([C@@H](C)[C@@H](O)[C@H](C)[C@@]2(O)C[C@@H](O)[C@H](C)[C@@H](C(C)C)O2)OC1=O [Bafilomycin A1] | 0.880 | – | – | IC50 (read-out: IC50): 0.019 µM
COc1ccc(C[C@H](N)C(=O)N[C@H]2[C@@H](O)[C@H](n3cnc4c(N(C)C)ncnc43)O[C@@H]2CO)cc1 [Puromycin dihydrochloride] | – | 83.5% | 6.6 µM | –
O=C(Nc1cc(C(F)(F)F)cc(C(F)(F)F)c1)c1cc(Cl)ccc1O [IMD-0354] | – | 66.1% | 3.1 µM | –
CCCCCCCCCC(=O)NC(CN1CCOCC1)C(O)c1ccccc1.Cl (centres unmarked) [PDMP Hydrochloride] | 0.390 | – | – | –
CCSc1ccc2c(c1)N(CCCN1CCN(C)CC1)c1ccccc1S2 [Thiethylperazine Maleate] | – | 83.2% | 4.4 µM | –
O=C(Nc1ccc([N+](=O)[O-])cc1Cl)c1cc(Cl)ccc1O [Niclosamide] | – | 84.2% | 2.6 µM | –
CCCC[C@H]1C(=O)O[C@H](C)[C@H](NC(=O)c2cccc(NC=O)c2OC)C(=O)O[C@@H](C)[C@@H]1OC(=O)CC(C)C [2-Methoxy-antimycin A3] | 0.791 | – | – | IC50 (read-out: IC50): 1.2 µM
Bromelain | 0.769 | – | – | IC50 (read-out: IC50): 4 µM
CCCCCCCCCCCCCC(=O)O[C@@H]1[C@@H](C)[C@@]2(O)[C@@H](C=C(CO)C[C@]3(O)C(=O)C(C)=C[C@@H]23)[C@@H]2C(C)(C)[C@]12OC(C)=O [PMA] | 0.800 | – | – | IC50 (read-out: IC50): < 0.18 µM
C=CC(C)(C)c1cc(/C=C/C(=O)c2ccc(O)cc2)c(OC)cc1O [Licochalcone-A] | 0.522 | – | – | IC50 (read-out: IC50): 4.7 µM
COC(=O)Nc1nc2ccc(Sc3ccccc3)cc2[nH]1 [Fenbendazole] | – | 50% | 5.8 µM | –
OCCN1CCN(CCCN2c3ccccc3Sc3ccc(Cl)cc32)CC1 [Perphenazine] | – | 79.3% | 5.8 µM | –
CN(C)C(=O)C(CCN1CCC(O)(c2ccc(Cl)cc2)CC1)(c1ccccc1)c1ccccc1 [Loperamide Hydrochloride] | – | – | – | Max Effect (Hydrochloride): 0.418
CCC[C@@H](C=O)NC(=O)[C@H](CC(C)C)NC(=O)[C@H](CC(C)C)NC(=O)OCc1ccccc1 [MG115] (Cbz-Leu-Leu-[Nva]-aldehyde) | 0.693 | – | – | IC50 (read-out: IC50): 0.9 µM
NC(=O)c1cn([C@@H]2O[C@H](CO)[C@@H](O)[C@H]2O)c2ncnc(N)c12 [Sangivamycin Hydrate] | – | 90% | < 0.2 µM | –
COc1cc(C=C2CCCC(=Cc3ccc(O)c(OC)c3)C2=O)ccc1O [2,6-Divanillylidenecyclohexanone] | – | 93.2% | 6.4 µM | –

Compound | Max Effect | Emax (Zaire ebolavirus, Vero) | IC50 (Zaire ebolavirus, Vero) | other results
Nc1nc2ccc(Cl)cc2c2nc(-c3ccco3)nn12 [CGS 15943] | – | 44.9% | – | –
CCOC(=O)c1c(CSc2ccccc2)n(C)c2cc(Br)c(O)c(CN(C)C)c12 [Arbidol] | – | 59.2% | 6 µM | –
CCC(=O)O[C@](Cc1ccccc1)(c1ccccc1)[C@H](C)CN(C)C [Propoxyphene Hydrochloride] | – | 42.2% | – | –
C=C(C)[C@H]1Cc2c(ccc3c2O[C@@H]2COc4cc(OC)c(OC)cc4[C@@H]2C3=O)O1 [Rotenone] | – | 70% | < 2 µM | –
COC(=O)Nc1nc2ccc(C(=O)c3cccs3)cc2[nH]1 [Nocodazole] | – | 80% | 0.5 µM | –
Guanethidine Monosulfate | 0.793 | – | – | IC50 (read-out: IC50): 8.7 µM
CCN(CCCc1ccccc1)CCCc1ccccc1 [Alverine Citrate] | – | 49.5% | – | –
O=[N+]([O-])c1ccccc1OCCCCCOc1ccccc1[N+](=O)[O-] [1,5′-Bis(2-Nitrophenoxy)pentane] | 0.531 | – | – | IC50 (read-out: IC50): 13 µM
CN1CCN(CCCN2c3ccccc3Sc3ccc(C(F)(F)F)cc32)CC1 [Trifluoperazine Hydrochloride] | – | 95.5% | 5 µM | –
O=C(OC[C@H]1O[C@@H](OC(=O)c2cc(O)c(O)c(O)c2)[C@H](OC(=O)c2cc(O)c(O)c(O)c2)[C@@H](OC(=O)c2cc(O)c(O)c(O)c2)[C@@H]1OC(=O)c1cc(O)c(O)c(O)c1)c1cc(O)c(O)c(O)c1 [PGG (1,2,3,4,6-b-O-Pentagalloyl glucose), 1,2,3,4,6-b-O-Pentagalloyl glucose] | 0.487 | – | – | IC50 (read-out: IC50): 3.2 µM
CO[C@@H]1[C@@H](OC)[C@H](C)[C@@](O)(CC(=O)O)O[C@H]1[C@H](C)[C@H]1O[C@@]2(CC[C@@](C)([C@H]3CC[C@@](C)([C@@H]4O[C@@H]([C@H]5O[C@](C)(O)[C@H](C)C[C@@H]5C)C[C@@H]4O[C@@H]4C[C@H](OC)[C@@H](OC)[C@H](C)O4)O3)O2)C[C@H](O)[C@H]1C [Maduramicin NH4] | – | 45.2% | – | –
CN1CCC(CN2c3ccccc3Sc3ccccc32)C1 (centres unmarked) [Methdilazine Hydrochloride] | – | 51.9% | 7.1 µM | –
Clc1cc(Cl)c(OCC#CI)cc1Cl [Haloprogin] | – | 58.8% | 2.9 µM | –
CC(=O)O.CC(=O)O.NC(=N\CCCCCC/N=C(N)/N=C(\N)Nc1ccc(Cl)cc1)/N=C(\N)Nc1ccc(Cl)cc1 [Chlorhexidine Diacetate] | 0.543 | – | – | IC50 (read-out: IC50): 6.1 µM
CC(O)(CS(=O)(=O)c1ccc(F)cc1)C(=O)Nc1ccc(C#N)c(C(F)(F)F)c1 (centres unmarked) [Bicalutamide] | – | 46.4% | – | –
Cc1cc(/C=C/c2ccc3cc(N(C)C)ccc3[n+]2C)c(C)n1-c1ccccc1 [Pyrvinium Pamoate] | – | 80% | 3.4 µM | –
CC[C@H]1CN2CCc3cc(OC)c(OC)cc3[C@@H]2C[C@@H]1C[C@H]1NCCc2cc(OC)c(OC)cc21 [Emetine dihydrochloride hydrate] | – | 89.3% | 0.3 µM | –
CCCN1C[C@H](CSC)C[C@@H]2c3cccc4[nH]cc(c34)C[C@H]21 [Pergolide Mesylate] | – | 38.3% | – | –
Cetrimide | 0.692 | – | – | IC50 (read-out: IC50): 5.6 µM
CC/C(=C(\c1ccccc1)c1ccc(OCCN(C)C)cc1)c1ccccc1 [Tamoxifen] | – | 90% | – | –
COc1cc([C@@H]2c3cc4c(cc3[C@H](O)[C@H]3COC(=O)[C@H]23)OCO4)cc(OC)c1OC [Podofilox] | – | 80% | 1.8 µM | –

Compound | Max Effect | Emax (Zaire ebolavirus, Vero) | IC50 (Zaire ebolavirus, Vero) | other results
O=C(/C=C/c1ccc(O)c(O)c1)OCCc1ccccc1 [CAPE] | 0.368 | – | – | –
O=c1[nH]c2ccccc2n1CCCN1CCN(C(c2ccccc2)c2ccccc2)CC1 [Oxatomide] | – | 62.2% | 2.1 µM | –
C=C1[C@@H](O)[C@@H]2O[C@]3(CC[C@H](/C=C/[C@@H](C)[C@@H]4CC(C)=C[C@@]5(O[C@H](C[C@@](C)(O)C(=O)O)CC[C@H]5O)O4)O3)CC[C@H]2O[C@@H]1[C@@H](O)C[C@H](C)[C@H]1O[C@@]2(CCCCO2)CC[C@H]1C [Okadaic Acid] | – | 48.8% | – | –
CNC(=O)c1cc(Oc2ccc(NC(=O)Nc3ccc(Cl)c(C(F)(F)F)c3)cc2)ccn1 [Sorafenib Tosylate] | – | 81.9% | 3.9 µM | –
CSc1ccc2c(c1)N(CCC1CCCCN1C)c1ccccc1S2.Cl (centres unmarked) [Thioridazine Hydrochloride] | 0.915 | – | – | Max Effect Vero: 0.954; IC50 (read-out: IC50): 4.3 µM; IC50 (read-out: IC50 (μM) Vero): 6.2 µM
Cc1cc(C2CCCCC2)n(O)c(=O)c1 [Ciclopirox Olamine] | – | 43.1% | – | –
CC(C)[C@]12O[C@H]1[C@@H]1O[C@]13[C@]1(O[C@H]1C[C@H]1C4=C(CC[C@@]13C)C(=O)OC4)[C@@H]2O [Triptolide] | – | 85% | < 0.1 µM | –
C[C@]12CC[C@H]3C(=CCc4cc(O)ccc43)[C@@H]1CCC2=O [Equilin] | – | 42.4% | – | –
CC[C@H](C)[C@H](NC(=O)[C@H]([C@@H](C)CC)N(C)C(C)=O)C(=O)N[C@H](C(=O)N[C@@H](CC(C)C)C(=O)[C@@]1(C)CO1)[C@@H](C)O [Epoxomicin] | 0.466 | – | – | –
N#CC(C#N)=NNc1ccc(OC(F)(F)F)cc1 [Carbonyl cyanide 4-(trifluoromethoxy)phenylhydrazone] | – | 75.2% | 4.5 µM | –
CC[C@H]1/C=C/C=C/C[C@@H](C)[C@H](O)[C@@](C)(O)C(=O)[C@@H](C)[C@H](O)[C@@H](C)C(=O)[C@@H](C)[C@H](O)[C@@H](C)/C=C/C(=O)O[C@@H]2[C@H](C)[C@H](CC1)O[C@]1(CC[C@H](C)[C@H](C[C@@H](C)O)O1)[C@H]2C [Oligomycin] | – | 42.6% | – | –
Nc1nc(-c2nn(Cc3ccccc3F)c3ncccc23)ncc1C1CC1 [Bay 41-2272] | 0.900 | – | – | IC50 (read-out: IC50): < 0.5 µM
CCOC(=O)N1CCC(=C2c3ccc(Cl)cc3CCc3cccnc32)CC1 [Loratadine] | – | 37.1% | – | –
Antimycin A | 0.850 | – | – | IC50 (read-out: IC50): < 0.04 µM
CN(C)CCOC(C)(c1ccccc1)c1ccc(Cl)cc1 (centres unmarked) [Chlorphenoxamine Hydrochloride] | – | 78.9% | 5 µM | –
COc1ccc(-c2nc(C(=O)N3CCN(C)CC3)sc2-c2ccc(OC)cc2)cc1 [FR122047] | 0.688 | – | – | IC50 (read-out: IC50): 3.7 µM
CN1CCC(=C2c3ccccc3C=Cc3ccccc32)CC1 [Cyproheptadine Hydrochloride] | – | 49.3% | – | –
CN(C)CCOc1ccc(/C(=C(/CCCl)c2ccccc2)c2ccccc2)cc1 [Toremifene] | 0.461 | – | – | IC50: 2.7 µM
Acetophenazine Maleate | 0.478 | – | – | –
COc1cc(C[C@H]2C(=O)OC[C@@H]2Cc2ccc(OC)c(OC)c2)ccc1O [(−)-Arctigenin] | 0.411 | – | – | –
CC(C)[C@H](NC(=O)OCc1ccccc1)C(=O)N[C@H](C=O)Cc1ccccc1 [Carbobenzoxy-valinyl-phenylalaninal] (Cbz-Val-Phe-aldehyde) | – | 60.7% | 2.9 µM | –
